“Also recorded” adds a separate entry of the source. Non-standard residues stand in square brackets, D forms with d. Residues, ends and D or L forms follow the SMILES beside them. Ahx = NCCCCCC(=O)O
Key:
[1] = biological target: SARS-CoV-2 Spike-ACE2 interaction (Severe acute respiratory syndrome coronavirus 2, UniProt P0DTC2); experiment: ELISA, SARS-CoV-2 Spike-ACE2 Interaction Inhibitor Screening Assay Kit; format: biochemical
[2] = test system: rCoV2-RBD (His-Spike S1 Protein, 13–685 aa); format: binding, SARS-CoV-2

Compound | IC50 [1] | Competition with ACE2 for binding to CoV2-RBD (in words) ([1]; approximately 13.48 μM of ACE2, ELISA) | Inhibition of the Spike-ACE2 interaction (in words) ([1]; competitive ELISA, BP19 1 to 128 μM in triplicates) | Binding of CoV2-RBD, sliding window array (in words) [2]
CC[C@H](C)[C@H](NC(=O)[C@H](Cc1ccccc1)NC(=O)[C@H](CCCCN)NC(=O)[C@H](CC(=O)O)NC(=O)[C@H](CC(C)C)NC(=O)[C@H](Cc1ccccc1)NC(=O)[C@@H](NC(=O)[C@H](CCCCN)NC(=O)[C@H](C)NC(=O)[C@H](CCC(N)=O)NC(=O)[C@H](CCC(=O)O)NC(=O)[C@H](CCC(=O)O)NC(=O)[C@@H](NC(=O)[C@@H](NC(=O)[C@H](CO)NC(=O)[C@H](CCC(N)=O)NC(=O)[C@H](C)NC(=O)[C@H](C)NC(=O)[C@@H](NC(=O)[C@@H](NC(=O)[C@H](C)NC(=O)[C@@H](NC(=O)[C@H](CC(C)C)NC(=O)[C@@H](N)CO)C(C)C)C(C)C)[C@@H](C)O)[C@@H](C)O)[C@@H](C)CC)[C@@H](C)O)C(=O)NCCCCCC(=O)N[C@@H](Cc1c[nH]c2ccccc12)C(N)=O [BP19] (H-SLVAVTAAQSTIEEQAKTFLDKFI[Ahx]W-NH2; N-terminus assumed) | 2.08 ± 0.38 µM | able to outcompete the natural ACE2 at lower than equimolar concentrations; also recorded: outcompeted 13.48 μM of ACE2 for binding to the CoV2-RBD | dose-responsive; also recorded: inhibitory of the Spike-ACE2 interaction in vitro | 
SLVAVTAAQSTIEEQAKTFLDKFN [9 ^N] |  |  |  | bound the CoV2-RBD the strongest; also recorded: bound the CoV2-RBD with the greatest intensity

Reference: article PMC9585897 (Peptides, 2022)
